The values below come from PubChem BioAssay (NCI).

Some test systems named below: K-562 leukemia; NCI-H226 lung; MDA-MB-435; SNB-75 CNS; MOLT-4 leukemia; HS 578T breast; SNB-19 CNS; ACHN renal; SF-268 CNS; HCC-2998 colon.
Common to all, as to assay: NCI anticancer screen, dose series, 48 h

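Protocol summary: plate cells (96-well), add compound at 5 concentrations, incubate 48 h, interpolate endpoints linearly. The concentration for 50% growth inhibition is given as GI50. Definition used: TGI = concentration required for complete inhibition of growth.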 *1 amine or outer side, *2 acyl side, *3 side chain or, on linkers, in order; H or OH if unused. Where a SMILES comes first, the peptide text is derived from it. CO = O=C([*:1])[*:2]

For `O=C1C=CC(=O)N1c1ccc2c(c1)Cc1cc(NC(=O)C(F)(F)F)ccc1-2`, the TGI is 59.6 µM in the assay on K-562 leukemia; 17.6 µM in the assay on NCI-H226 lung; 31.5 µM with MDA-MB-435; 31.3 µM with SNB-75 CNS; over 100 µM in the assay on MOLT-4 leukemia; 51.9 µM in the assay on HS 578T breast. For the same molecule, the TGI with SNB-19 CNS was over 65.5 µM; in the assay with ACHN renal it was 16.4 µM; with SF-268 CNS it was 39.7 µM; in the assay on HCC-2998 colon, over 58.9 µM.

For the molecule `N#C/C(=C\c1ccc(Cl)cc1)n1nnc2cc(F)c(F)cc21`, the GI50 with K-562 leukemia is 2.19 µM; in the assay with NCI-H226 lung it was 2.02 µM; in the assay on MDA-MB-435 it was 1.76 µM; in the assay with SNB-75 CNS, 1.51 µM; with MOLT-4 leukemia, 2.65 µM; with HS 578T breast, 2.76 µM. The GI50 was 1.82 µM in the assay on SNB-19 CNS, 1.64 µM with ACHN renal, 1.98 µM in the assay with SF-268 CNS and 1.74 µM in the assay on HCC-2998 colon. Moreover, the TGI in the assay on K-562 leukemia was over 100 µM; with NCI-H226 lung, 4.54 µM; in the assay on MDA-MB-435, 4.42 µM; in the assay with SNB-75 CNS, 3.01 µM; with MOLT-4 leukemia, over 100 µM; in the assay on HS 578T breast it was 8.49 µM. In addition, the TGI stood at 3.78 µM with SNB-19 CNS, 3.02 µM in the assay with ACHN renal, 4.45 µM in the assay on SF-268 CNS and 3.29 µM with HCC-2998 colon.

Regarding `Cc1cc(S(=O)(=O)/N=C(\N)n2nc(C)c(C)c2C)c(SCc2ccccc2)cc1Cl`, the GI50 was 4.15 µM in the assay on K-562 leukemia; over 100 µM in the assay on NCI-H226 lung; 3.23 µM in the assay with MDA-MB-435; over 100 µM in the assay with SNB-75 CNS; 3.52 µM in the assay with MOLT-4 leukemia; over 100 µM with HS 578T breast. The GI50 with SNB-19 CNS, in the assay with ACHN renal, in the assay with SF-268 CNS and in the assay with HCC-2998 colon was over 100 µM in each case. The TGI with K-562 leukemia, in the assay on NCI-H226 lung, in the assay with MDA-MB-435, in the assay with SNB-75 CNS, in the assay with MOLT-4 leukemia and with HS 578T breast was over 100 µM each time. Further, the TGI in the assay on SNB-19 CNS, in the assay on ACHN renal, in the assay with SF-268 CNS and in the assay on HCC-2998 colon was over 100 µM throughout.

Turning to `O=C(c1cccs1)c1c(C(F)(F)F)n([O-])c2cc(C(F)(F)F)ccc2[n+]1=O`, the GI50 was 0.0303 µM with K-562 leukemia; 0.647 µM with NCI-H226 lung; 0.315 µM in the assay on MDA-MB-435; 0.491 µM in the assay on SNB-75 CNS; 0.0757 µM in the assay with MOLT-4 leukemia; 0.189 µM in the assay on HS 578T breast. Moreover, the GI50 in the assay with SNB-19 CNS is 0.348 µM; in the assay with ACHN renal it was 0.159 µM; with SF-268 CNS it was 0.163 µM; in the assay on HCC-2998 colon it was 0.293 µM. In addition, the TGI in the assay with K-562 leukemia is 0.101 µM; with NCI-H226 lung, 1.71 µM; in the assay on MDA-MB-435 it was 0.877 µM; in the assay on SNB-75 CNS, 1.54 µM; in the assay on MOLT-4 leukemia it was 0.231 µM; with HS 578T breast, 0.546 µM. The TGI was 0.707 µM with SNB-19 CNS, 0.303 µM in the assay with ACHN renal, 0.334 µM in the assay with SF-268 CNS and 0.85 µM in the assay with HCC-2998 colon.

Consider `OCC1OC(O)C(N=Cc2ccc3c(c2)OCO3)C(O)C1O` (stereo not drawn), for which the TGI with K-562 leukemia, in the assay on NCI-H226 lung, in the assay with MDA-MB-435, in the assay with SNB-75 CNS, with MOLT-4 leukemia and in the assay with HS 578T breast was over 100 µM throughout. Also, the TGI in the assay with SNB-19 CNS, in the assay with ACHN renal, in the assay with SF-268 CNS and with HCC-2998 colon was over 100 µM throughout.

`CC(C)C(NC(=O)C(CCCN=C(N)N)NC(=O)NC(Cc1ccccc1)C(=O)O)C(=O)NC(C=O)CCCN=C(N)N` (stereo not drawn) ({Phe-CO}-Arg-Val-Arg-aldehyde; configuration not given here): the GI50 with K-562 leukemia, with NCI-H226 lung, in the assay with MDA-MB-435, with SNB-75 CNS, in the assay with HS 578T breast and in the assay on SNB-19 CNS was over 5 µM each time. The GI50 in the assay with ACHN renal was over 5 µM; in the assay with SF-268 CNS, over 5 µM; with HCC-2998 colon, 0.0202 µM. Further, the TGI in the assay with K-562 leukemia, in the assay on NCI-H226 lung, in the assay with MDA-MB-435, in the assay on SNB-75 CNS, in the assay on HS 578T breast and in the assay with SNB-19 CNS was over 5 µM in each case. For the same molecule, the TGI with ACHN renal, with SF-268 CNS and in the assay on HCC-2998 colon was over 5 µM each time.

Turning to `C[C@]12CC[C@H]3[C@@H](CC=C4C[C@@H](O)CC[C@@]43C)[C@@H]1C/C(=C\c1cccc(OCCCn3ccnc3)c1)[C@@H]2O`, the GI50 with K-562 leukemia is 3.38 µM; in the assay on NCI-H226 lung, 16.1 µM; with MDA-MB-435 it was 9.99 µM; in the assay with SNB-75 CNS, 14.1 µM; with MOLT-4 leukemia, 6.55 µM; with HS 578T breast it was 5.16 µM. Moreover, the GI50 with SNB-19 CNS was 17.1 µM; in the assay with ACHN renal, 13.9 µM; with SF-268 CNS, 16.8 µM; with HCC-2998 colon, 17.8 µM. Besides, the TGI is over 58.4 µM in the assay on K-562 leukemia; 43.4 µM with NCI-H226 lung; 42.6 µM in the assay with MDA-MB-435; 28.8 µM in the assay on SNB-75 CNS; 32.2 µM in the assay with MOLT-4 leukemia; 23.4 µM in the assay with HS 578T breast. Further, the TGI in the assay with SNB-19 CNS turned out to be 37.6 µM; in the assay on ACHN renal it was 31.3 µM; with SF-268 CNS, 37.5 µM; in the assay with HCC-2998 colon, 34.1 µM.

Take `COc1cc(-c2ccc(-[n+]3nc(-c4ccc([N+](=O)[O-])cc4)nn3-c3ccc([N+](=O)[O-])cc3)c(OC)c2)ccc1-[n+]1nc(-c2ccc([N+](=O)[O-])cc2)nn1-c1ccc([N+](=O)[O-])cc1`: the GI50 was 3.39 µM in the assay on K-562 leukemia; 12.1 µM with NCI-H226 lung; 2.51 µM in the assay with MDA-MB-435; 1.3 µM in the assay on SNB-75 CNS; 2.98 µM in the assay with MOLT-4 leukemia; 1.93 µM in the assay with HS 578T breast. Further, the GI50 in the assay with SNB-19 CNS was 11.9 µM; in the assay with ACHN renal, 4.16 µM; in the assay on SF-268 CNS, 1.66 µM; with HCC-2998 colon, 9.21 µM. The TGI is over 44.6 µM in the assay on K-562 leukemia; 45.7 µM in the assay on NCI-H226 lung; 6.62 µM with MDA-MB-435; 2.95 µM in the assay on SNB-75 CNS; over 82 µM in the assay with MOLT-4 leukemia; 5.07 µM in the assay on HS 578T breast. The TGI in the assay with SNB-19 CNS was 69.3 µM; with ACHN renal, 19.2 µM; with SF-268 CNS, 5.38 µM; with HCC-2998 colon, 29.3 µM.
